EP4745135A1 (Gluetacs Therapeutics (Shanghai) Co., Ltd., priority 2023, dated 2025)

Experiments:
[1] = tested on: Human multiple myeloma cell (MM.1S); experiment: Tumor cell proliferation inhibition (CellTiter-Meiluncell luminescent cell viability assay); conditions: for inhibition at 0.01 µM / inhibition at 0.5 µM: Homo sapiens, MM1.S, 96 h; for inhibition at 0.01 µM: read-out: Inhibition Rate at 10 nM (%); for inhibition at 0.5 µM: read-out: Inhibition Rate at 500 nM (%)
[2] = molecular target: T1, human Cereblon WT GST-tagged protein (Homo sapiens, UniProt Q96SW2); experiment: CRBN-binding affinity, HTRF (CEREBLON BINDING kit); conditions: for inhibition at 0.5 µM: read-out: Inhibition Rate at 0.5 µM (%); for inhibition at 2 µM: read-out: Inhibition Rate at 2 µM (%)
T1 construct: purchased CISBIO 64BDCRBNPEH

GSPT1 = experiment: Western blot, degradation of substrate protein in hPBMCs; assay type: cell-based, Human; conditions: Western blot, 24 hours of compound treatment, compounds tested at 50 nM and 500 nM (concentration for the table not stated)
WEE1 = molecular target: T2, WEE1 (Homo sapiens, UniProt P30291+Q96SW2); experiment: as above; assay type: cell-based; conditions: Western blot, 24 hours of compound treatment, compounds tested at 50 nM and 500 nM (concentration for the table not stated)
T2 construct: effects of the compounds of the present disclosure on the expression of target proteins in cells; endogenous in cells; host or cells: human PBMCs (Milecell Biotechnologies)

CK1α = molecular target: T3, CK1α (Homo sapiens, UniProt P48729+Q96SW2); experiment: as above; assay type: cell-based; conditions: Western blot, 24 hours of compound treatment, compounds tested at 50 nM and 500 nM (concentration for the table not stated)
T3 construct: effects of the compounds of the present disclosure on the expression of target proteins in cells; endogenous in cells; host or cells: human PBMCs (Milecell Biotechnologies)

IKZF2 = molecular target: T4, IKZF2 (Homo sapiens, UniProt Q96SW2+Q9UKS7); experiment: as above; assay type: cell-based; conditions: Western blot, 24 hours of compound treatment, compounds tested at 50 nM and 500 nM (concentration for the table not stated)
T4 construct: effects of the compounds of the present disclosure on the expression of target proteins in cells; endogenous in cells; host or cells: human PBMCs (Milecell Biotechnologies)

IKZF1 = molecular target: T5, IKZF1 (Homo sapiens, UniProt Q13422+Q96SW2); experiment: as above; assay type: cell-based; conditions: Western blot, 24 hours of compound treatment, compounds tested at 50 nM and 500 nM (concentration for the table not stated)
T5 construct: effects of the compounds of the present disclosure on the expression of target proteins in cells; endogenous in cells; host or cells: human PBMCs (Milecell Biotechnologies)

IKZF3 = molecular target: T6, IKZF3 (Homo sapiens, UniProt Q96SW2+Q9UKT9); experiment: as above; assay type: cell-based; conditions: Western blot, 24 hours of compound treatment, compounds tested at 50 nM and 500 nM (concentration for the table not stated)
T6 construct: effects of the compounds of the present disclosure on the expression of target proteins in cells; endogenous in cells; host or cells: human PBMCs (Milecell Biotechnologies)
T6 sequence (Q9UKT9 whole entry): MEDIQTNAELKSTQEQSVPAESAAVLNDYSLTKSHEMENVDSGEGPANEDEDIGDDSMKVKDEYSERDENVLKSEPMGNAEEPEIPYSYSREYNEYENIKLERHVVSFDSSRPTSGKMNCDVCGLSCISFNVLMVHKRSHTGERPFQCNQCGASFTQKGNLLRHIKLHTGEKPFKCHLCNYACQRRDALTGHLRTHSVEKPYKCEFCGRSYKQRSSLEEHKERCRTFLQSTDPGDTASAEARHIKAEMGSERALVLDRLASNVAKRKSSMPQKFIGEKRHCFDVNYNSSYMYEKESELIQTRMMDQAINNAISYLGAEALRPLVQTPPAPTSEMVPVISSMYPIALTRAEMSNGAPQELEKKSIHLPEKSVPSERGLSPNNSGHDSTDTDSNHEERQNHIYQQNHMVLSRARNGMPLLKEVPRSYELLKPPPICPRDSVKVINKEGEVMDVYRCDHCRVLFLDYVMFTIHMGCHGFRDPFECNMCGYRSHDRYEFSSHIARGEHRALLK
T6 sequence (Q96SW2 whole entry): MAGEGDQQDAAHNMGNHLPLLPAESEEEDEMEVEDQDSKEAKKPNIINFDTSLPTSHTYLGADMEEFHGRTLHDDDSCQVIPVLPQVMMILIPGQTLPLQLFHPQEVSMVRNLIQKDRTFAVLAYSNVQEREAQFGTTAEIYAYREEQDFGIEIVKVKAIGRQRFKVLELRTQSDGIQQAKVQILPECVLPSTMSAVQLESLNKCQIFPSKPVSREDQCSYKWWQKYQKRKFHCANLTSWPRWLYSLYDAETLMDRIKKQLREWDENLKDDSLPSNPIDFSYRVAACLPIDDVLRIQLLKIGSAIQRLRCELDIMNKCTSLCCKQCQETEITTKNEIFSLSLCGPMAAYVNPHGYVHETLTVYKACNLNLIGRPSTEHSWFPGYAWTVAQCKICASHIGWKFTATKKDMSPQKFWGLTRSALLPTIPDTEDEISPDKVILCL
T6 sequence (Q16531 whole entry partner): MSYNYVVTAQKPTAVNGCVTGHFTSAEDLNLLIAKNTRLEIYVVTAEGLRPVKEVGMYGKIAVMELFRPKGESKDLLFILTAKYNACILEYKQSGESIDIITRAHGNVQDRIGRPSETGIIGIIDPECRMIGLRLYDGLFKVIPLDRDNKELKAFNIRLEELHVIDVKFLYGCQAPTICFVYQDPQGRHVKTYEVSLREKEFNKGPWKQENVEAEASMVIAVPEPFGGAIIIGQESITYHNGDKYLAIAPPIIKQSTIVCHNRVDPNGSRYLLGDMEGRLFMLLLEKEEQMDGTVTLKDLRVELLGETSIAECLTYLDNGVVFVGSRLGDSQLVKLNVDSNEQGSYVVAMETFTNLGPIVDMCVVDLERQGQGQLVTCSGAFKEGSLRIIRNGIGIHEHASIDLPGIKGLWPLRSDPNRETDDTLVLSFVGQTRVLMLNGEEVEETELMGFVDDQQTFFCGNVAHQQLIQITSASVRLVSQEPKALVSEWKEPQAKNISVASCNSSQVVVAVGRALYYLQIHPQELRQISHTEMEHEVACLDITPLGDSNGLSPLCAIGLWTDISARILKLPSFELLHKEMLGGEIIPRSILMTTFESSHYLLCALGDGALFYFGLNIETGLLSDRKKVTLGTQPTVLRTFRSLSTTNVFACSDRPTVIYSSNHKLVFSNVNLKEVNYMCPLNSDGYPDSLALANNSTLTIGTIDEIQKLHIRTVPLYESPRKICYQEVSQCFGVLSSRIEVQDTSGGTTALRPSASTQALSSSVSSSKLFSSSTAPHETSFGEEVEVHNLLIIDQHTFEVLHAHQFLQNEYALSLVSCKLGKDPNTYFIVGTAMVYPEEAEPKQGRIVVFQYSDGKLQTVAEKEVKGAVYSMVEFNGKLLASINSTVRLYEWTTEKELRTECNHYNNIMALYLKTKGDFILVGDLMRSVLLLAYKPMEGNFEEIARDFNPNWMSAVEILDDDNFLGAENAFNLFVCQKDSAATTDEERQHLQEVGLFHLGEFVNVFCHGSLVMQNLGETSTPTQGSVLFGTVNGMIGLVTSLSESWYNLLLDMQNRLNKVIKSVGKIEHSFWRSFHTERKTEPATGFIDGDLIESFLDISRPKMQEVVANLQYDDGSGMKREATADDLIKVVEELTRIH

T1 sequence (Q96SW2 whole entry): as the sequence (Q96SW2 whole entry) above
T2 sequence (P30291 whole entry): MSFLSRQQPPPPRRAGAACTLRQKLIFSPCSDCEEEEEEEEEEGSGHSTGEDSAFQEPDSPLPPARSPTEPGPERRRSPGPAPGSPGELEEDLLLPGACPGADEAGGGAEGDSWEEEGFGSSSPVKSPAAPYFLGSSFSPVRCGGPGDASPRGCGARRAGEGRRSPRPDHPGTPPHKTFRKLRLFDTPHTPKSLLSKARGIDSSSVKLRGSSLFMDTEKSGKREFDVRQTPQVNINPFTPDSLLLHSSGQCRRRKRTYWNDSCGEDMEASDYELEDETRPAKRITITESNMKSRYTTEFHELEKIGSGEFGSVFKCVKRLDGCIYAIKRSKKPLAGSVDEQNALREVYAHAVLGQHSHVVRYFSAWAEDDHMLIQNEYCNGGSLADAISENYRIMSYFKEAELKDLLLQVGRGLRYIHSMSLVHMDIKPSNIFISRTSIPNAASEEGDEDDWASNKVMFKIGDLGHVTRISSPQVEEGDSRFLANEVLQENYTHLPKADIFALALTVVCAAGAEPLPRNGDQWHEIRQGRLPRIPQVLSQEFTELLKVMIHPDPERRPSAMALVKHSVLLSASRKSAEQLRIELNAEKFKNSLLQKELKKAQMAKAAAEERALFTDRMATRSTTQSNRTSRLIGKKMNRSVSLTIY
T2 sequence (Q96SW2 whole entry): as the sequence (Q96SW2 whole entry) above
T2 sequence (Q16531 whole entry partner): as the sequence (Q16531 whole entry partner) above
T4 sequence (Q9UKS7 whole entry): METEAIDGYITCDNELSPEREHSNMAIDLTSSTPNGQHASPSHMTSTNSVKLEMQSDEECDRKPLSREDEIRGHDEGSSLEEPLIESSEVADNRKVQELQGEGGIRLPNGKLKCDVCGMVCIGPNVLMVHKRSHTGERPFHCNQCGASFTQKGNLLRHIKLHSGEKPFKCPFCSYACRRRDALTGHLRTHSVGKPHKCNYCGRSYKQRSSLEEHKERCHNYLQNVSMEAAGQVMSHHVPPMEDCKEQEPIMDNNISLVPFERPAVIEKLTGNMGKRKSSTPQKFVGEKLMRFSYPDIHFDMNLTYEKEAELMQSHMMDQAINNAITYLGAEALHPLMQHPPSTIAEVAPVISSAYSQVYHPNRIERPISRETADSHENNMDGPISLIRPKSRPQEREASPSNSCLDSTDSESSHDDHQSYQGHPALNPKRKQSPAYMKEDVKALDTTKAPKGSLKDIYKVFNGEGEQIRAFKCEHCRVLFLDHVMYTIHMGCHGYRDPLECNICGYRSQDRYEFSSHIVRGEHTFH
T4 sequence (Q96SW2 whole entry): as the sequence (Q96SW2 whole entry) above
T4 sequence (Q16531 whole entry partner): as the sequence (Q16531 whole entry partner) above
T5 sequence (Q13422 whole entry): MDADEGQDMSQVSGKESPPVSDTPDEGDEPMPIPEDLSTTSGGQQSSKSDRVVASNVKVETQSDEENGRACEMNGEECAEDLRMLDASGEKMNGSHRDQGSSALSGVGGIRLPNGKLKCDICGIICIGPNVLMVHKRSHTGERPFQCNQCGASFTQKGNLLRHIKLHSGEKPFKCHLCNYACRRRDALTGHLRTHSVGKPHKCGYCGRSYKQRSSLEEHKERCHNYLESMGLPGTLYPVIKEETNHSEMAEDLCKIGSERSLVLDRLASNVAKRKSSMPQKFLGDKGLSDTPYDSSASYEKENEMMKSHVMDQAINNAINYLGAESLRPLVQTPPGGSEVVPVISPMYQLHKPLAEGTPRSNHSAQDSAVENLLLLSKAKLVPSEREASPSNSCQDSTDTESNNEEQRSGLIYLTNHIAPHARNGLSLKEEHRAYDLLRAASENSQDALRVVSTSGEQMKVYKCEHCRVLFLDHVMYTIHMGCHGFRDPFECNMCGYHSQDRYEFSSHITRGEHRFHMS
T5 sequence (Q96SW2 whole entry): as the sequence (Q96SW2 whole entry) above
T5 sequence (Q16531 whole entry partner): as the sequence (Q16531 whole entry partner) above
T3 sequence (P48729 whole entry): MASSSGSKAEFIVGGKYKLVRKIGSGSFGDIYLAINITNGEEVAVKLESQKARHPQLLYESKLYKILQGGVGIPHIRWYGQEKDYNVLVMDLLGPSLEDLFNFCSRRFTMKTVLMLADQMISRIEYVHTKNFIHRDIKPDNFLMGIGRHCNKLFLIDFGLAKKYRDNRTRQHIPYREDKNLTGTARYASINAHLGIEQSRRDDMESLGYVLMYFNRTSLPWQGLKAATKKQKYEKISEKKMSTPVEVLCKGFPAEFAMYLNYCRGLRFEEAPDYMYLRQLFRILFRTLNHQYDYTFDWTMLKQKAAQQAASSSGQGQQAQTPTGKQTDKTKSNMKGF
T3 sequence (Q96SW2 whole entry): as the sequence (Q96SW2 whole entry) above
T3 sequence (Q16531 whole entry partner): as the sequence (Q16531 whole entry partner) above

SMILES | inhibition at 0.01 µM [1] [%] | Inhibition Rate at 500 nM (%) ([1]; MM.1S, 96 hours) | inhibition at 0.5 µM [2] [%] | inhibition at 2 µM [2] [%] | GSPT1 substrate protein remaining % (GSPT1) | Wee1 substrate protein remaining % (WEE1) | CK1α substrate protein remaining % (CK1α) | IKZF2 substrate protein remaining % (IKZF2) | IKZF 1 substrate protein remaining % (IKZF1) | IKZF3 substrate protein remaining % (IKZF3) | inhibition at 0.5 µM [1] [%] | Inhibition Rate at 10 nM (%) ([1]; MM.1S, 10 nM, 96 hours)
O=C1CCC(N2Cc3cc(CN4CCN(c5ccccc5Br)CC4)ccc3C2=S)C(=O)N1 (centres unmarked) [GT-08242, 3-(5-((4-(2-bromophenyl)piperazin-1-yl)methyl)-1-thioxoisoindolin-2-yl)piperidine-2,6-dione] | 30 to 40 | la8 | 40 to 53 | 80 to 100 | A (0% ≤ substrate protein remaining % ≤ 80%) | B (80%< substrate protein remaining %≤ 100%) | B (80%< substrate protein remaining %≤ 100%) | B (80%< substrate protein remaining %≤ 100%) | B (80%< substrate protein remaining %≤ 100%) | B (80%< substrate protein remaining %≤ 100%) |  | 
O=C1CCC(N2Cc3c(CN4CC=C(c5ncccc5F)CC4)cccc3C2=S)C(=O)N1 (centres unmarked) [GT-08463, 3-(4-((3-fluoro-3',6'-dihydro-[2,4'-bipyridin]-1'(2'H)-yl)methyl)-1-thioxoisoindolin-2-yl)piperidine-2,6-dione] | 40 to 50 | la5 | 53 to 60 | 60 to 80 | A (0% ≤ substrate protein remaining % ≤ 80%) | A (0% ≤ substrate protein remaining % ≤ 80%) | B (80%< substrate protein remaining %≤ 100%) | B (80%< substrate protein remaining %≤ 100%) | B (80%< substrate protein remaining %≤ 100%) | B (80%< substrate protein remaining %≤ 100%) |  | 
O=C1CCC(N2Cc3c(CN4CC=C(c5ccnc(F)c5F)CC4)cccc3C2=S)C(=O)N1 (centres unmarked) [GT-08464, 3-(4-((2',3'-difluoro-3,6-dihydro-[4,4'-bipyridin]-1(2H)-yl)methyl)-1-thioxoisoindolin-2-yl)piperidine-2,6-dione] | 50 to 60 | la5 | 60 to 80 | 60 to 80 | A (0% ≤ substrate protein remaining % ≤ 80%) | A (0% ≤ substrate protein remaining % ≤ 80%) | B (80%< substrate protein remaining %≤ 100%) | B (80%< substrate protein remaining %≤ 100%) | B (80%< substrate protein remaining %≤ 100%) | B (80%< substrate protein remaining %≤ 100%) |  | 
O=C1CCC(N2Cc3c(CN4C5CC4CN(c4cccc(Cl)c4Cl)C5)cccc3C2=S)C(=O)N1 (centres unmarked) [GT-08465, 3-(4-((3-(2,3-dichlorophenyl)-3,6-diazabicyclo[3.1.1]heptan-6-yl)methyl)-1-thioxoisoindolin-2-yl)piperidine-2,6-dione] | 40 to 50 | la5 | 40 to 53 | 60 to 80 | A (0% ≤ substrate protein remaining % ≤ 80%) | B (80%< substrate protein remaining %≤ 100%) | B (80%< substrate protein remaining %≤ 100%) | B (80%< substrate protein remaining %≤ 100%) | B (80%< substrate protein remaining %≤ 100%) | B (80%< substrate protein remaining %≤ 100%) |  | 
O=C1CCC(N2Cc3c(CN4CC5CC(C4)N5c4cccc(Cl)c4Cl)cccc3C2=S)C(=O)N1 (centres unmarked) [GT-08466, 3-(4-((6-(2,3-dichlorophenyl)-3,6-diazabicyclo[3.1.1]heptan-3-yl)methyl)-1-thioxoisoindolin-2-yl)piperidine-2,6-dione] | 20 to 30 | la7 | 30 to 40 | 60 to 80 | A (0% ≤ substrate protein remaining % ≤ 80%) | B (80%< substrate protein remaining %≤ 100%) | B (80%< substrate protein remaining %≤ 100%) | A (0% ≤ substrate protein remaining % ≤ 80%) | B (80%< substrate protein remaining %≤ 100%) | B (80%< substrate protein remaining %≤ 100%) |  | 
O=C1CCC(N2Cc3cc(CN4CC5CC(C4)N5c4cccc(Cl)c4Cl)ccc3C2=S)C(=O)N1 (centres unmarked) [GT-08476, 3-(5-((6-(2,3-dichlorophenyl)-3,6-diazabicyclo[3.1.1]heptan-3-yl)methyl)-1-thioxoisoindolin-2-yl)piperidine-2,6-dione] | 5 to 10 |  | 60 to 80 | 80 to 100 | B (80%< substrate protein remaining %≤ 100%) | B (80%< substrate protein remaining %≤ 100%) | B (80%< substrate protein remaining %≤ 100%) | B (80%< substrate protein remaining %≤ 100%) | B (80%< substrate protein remaining %≤ 100%) | A (0% ≤ substrate protein remaining % ≤ 80%) | 40 to 50 | 
O=C1CCC(N2Cc3cc(CN4C[C@H]5C[C@@H]4CN5c4cccc(Cl)c4Cl)ccc3C2=S)C(=O)N1 (stereo partly drawn) [GT-08477, 3-(5-(((1R,4R)-5-(2,3-dichlorophenyl)-2,5-diazabicyclo[2.2.1]heptan-2-yl)methyl)-1-thioxoisoindolin-2-yl)piperidine-2,6-dione] |  |  | 53 to 60 | 80 to 100 | A (0% ≤ substrate protein remaining % ≤ 80%) | B (80%< substrate protein remaining %≤ 100%) | B (80%< substrate protein remaining %≤ 100%) | B (80%< substrate protein remaining %≤ 100%) | B (80%< substrate protein remaining %≤ 100%) | A (0% ≤ substrate protein remaining % ≤ 80%) | 40 to 50 | la5
O=C1CCC(N2Cc3cc(CN4CC5CCC4CN5c4cccc(Cl)c4Cl)ccc3C2=S)C(=O)N1 (centres unmarked) [GT-08478, 3-(5-((5-(2,3-dichlorophenyl)-2,5-diazabicyclo[2.2.2]octan-2-yl)methyl)-1-thioxoisoindolin-2-yl)piperidine-2,6-dione] | 40 to 50 |  | 40 to 53 | 80 to 100 | A (0% ≤ substrate protein remaining % ≤ 80%) | B (80%< substrate protein remaining %≤ 100%) | B (80%< substrate protein remaining %≤ 100%) | B (80%< substrate protein remaining %≤ 100%) | B (80%< substrate protein remaining %≤ 100%) | B (80%< substrate protein remaining %≤ 100%) | 50 to 60 | 
